Reference: ChEMBL document CHEMBL5331096, “Pseudo-irreversible butyrylcholinesterase inhibitors: Structure-activity relationships, computational and crystallographic study of the N-dialkyl O-arylcarbamate warhead” (Eur J Med Chem, 2023)
Activity calls are given as the source filed them. The rule behind the calls is not given here.

Tests used:
Acetylcholinesterase [1] = target: T1, Acetylcholinesterase (Homo sapiens, UniProt P22303); test: Time dependent inhibition of human AChE using acetylthiocholine iodide as substrate preincubated for 5 mins followed by substrate addition and measured for 2 mins by spectrophotometry based Ellman's method; conditions: time 7.0 min
T1 sequence (P22303 whole entry): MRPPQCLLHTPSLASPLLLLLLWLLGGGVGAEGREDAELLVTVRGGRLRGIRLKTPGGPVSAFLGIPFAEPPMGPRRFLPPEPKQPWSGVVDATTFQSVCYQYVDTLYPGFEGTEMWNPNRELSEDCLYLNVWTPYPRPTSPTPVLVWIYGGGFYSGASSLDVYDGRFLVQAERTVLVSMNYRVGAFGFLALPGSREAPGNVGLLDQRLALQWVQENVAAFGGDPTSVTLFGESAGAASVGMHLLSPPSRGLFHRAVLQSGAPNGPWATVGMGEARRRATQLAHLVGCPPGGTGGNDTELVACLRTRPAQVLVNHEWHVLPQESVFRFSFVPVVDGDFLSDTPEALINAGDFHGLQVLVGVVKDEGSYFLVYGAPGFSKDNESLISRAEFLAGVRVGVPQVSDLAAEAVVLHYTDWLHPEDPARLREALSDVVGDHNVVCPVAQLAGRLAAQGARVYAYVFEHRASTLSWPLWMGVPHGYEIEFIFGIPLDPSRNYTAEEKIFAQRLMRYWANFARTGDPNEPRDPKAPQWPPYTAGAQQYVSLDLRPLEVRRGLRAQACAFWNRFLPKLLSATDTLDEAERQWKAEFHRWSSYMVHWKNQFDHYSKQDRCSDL

Cholinesterase [2] = target: T2, Cholinesterase (Homo sapiens, UniProt P06276); test: Time dependent inhibition of human BChE using butyrylthiocholine iodide as substrate preincubated for 5 mins followed by substrate addition and measured for 2 mins by spectrophotometry based Ellman's method; conditions: time 7.0 min
T2 sequence (P06276 whole entry): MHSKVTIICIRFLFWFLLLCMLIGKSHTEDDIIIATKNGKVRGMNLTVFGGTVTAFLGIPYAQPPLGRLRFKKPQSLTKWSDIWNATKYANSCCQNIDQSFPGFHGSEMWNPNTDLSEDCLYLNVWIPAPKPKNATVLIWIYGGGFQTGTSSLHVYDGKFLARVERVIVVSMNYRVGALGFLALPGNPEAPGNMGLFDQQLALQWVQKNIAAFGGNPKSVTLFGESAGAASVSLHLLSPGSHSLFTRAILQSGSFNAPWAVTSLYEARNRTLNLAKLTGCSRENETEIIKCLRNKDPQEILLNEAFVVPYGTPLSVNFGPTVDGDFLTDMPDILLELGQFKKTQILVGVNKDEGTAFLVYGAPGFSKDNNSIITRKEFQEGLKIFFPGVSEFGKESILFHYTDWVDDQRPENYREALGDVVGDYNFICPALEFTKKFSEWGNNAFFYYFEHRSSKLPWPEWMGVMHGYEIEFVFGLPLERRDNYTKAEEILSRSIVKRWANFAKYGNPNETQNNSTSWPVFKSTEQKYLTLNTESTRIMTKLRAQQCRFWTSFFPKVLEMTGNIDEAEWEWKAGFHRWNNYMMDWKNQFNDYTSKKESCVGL

Cholinesterase [3] = target: T2, Cholinesterase; test: Inhibition of human BChE using butyrylthiocholine iodide as substrate preincubated for 5 mins followed by substrate addition and measured for 2 mins by spectrophotometry based Ellman's method
Acetylcholinesterase [4] = target: T1, Acetylcholinesterase; test: Inhibition of human AChE using acetylthiocholine iodide as substrate preincubated for 5 mins followed by substrate addition and measured for 2 mins by spectrophotometry based Ellman's method
Cholinesterase [5] = target: T2, Cholinesterase; test: Binding affinity to human BChE plasma assessed as appearance of fluorescent bands at 10 uM incubated for 30 mins in presence of BW284c51 by Western blot analysis; assay type: cell-free
Cholinesterase [6] = target: T2, Cholinesterase; test: Binding affinity to recombinant human BChE assessed as appearance of fluorescent bands at 10 uM incubated for 4 hrs by Western blot analysis
Acetylcholinesterase [7] = target: T1, Acetylcholinesterase; test: Binding affinity to recombinant human AChE assessed as appearance of fluorescent bands at 10 uM incubated for 4 hrs by Western blot analysis
Acetylcholinesterase [8] = target: T1, Acetylcholinesterase; test: Binding affinity to recombinant human AChE assessed as appearance of fluorescent bands at 10 uM incubated for 4 hrs in presence of BW284c51 by Western blot analysis
Cholinesterase [9] = target: T2, Cholinesterase; test: Binding affinity to human BChE plasma assessed as appearance of fluorescent bands at 10 uM incubated for 30 mins by Western blot analysis; assay type: cell-free
Cholinesterase [10] = target: T2, Cholinesterase; test: Binding affinity to human BChE plasma assessed as appearance of fluorescent bands at 10 uM incubated for 30 mins in presence of ethopropazine by Western blot analysis; assay type: cell-free
Cholinesterase [11] = target: T2, Cholinesterase; test: Binding affinity to human BChE plasma assessed as appearance of fluorescent bands at 10 uM incubated for 30 mins in presence of isoOMPA by Western blot analysis; assay type: cell-free
Cholinesterase [12] = target: T2, Cholinesterase; test: Binding affinity to human BChE assessed as decarbamoylation rate constant at 25 degree C incubated for 1 hr by Ellman's method
[13] = target: Cholinesterases; ACHE & BCHE (Homo sapiens) (UniProt P06276+P22303); test: Selectivity ratio of IC50 for human AChE to IC50 for human BChE; assay type: protein assay
Chain of Cholinesterases; ACHE & BCHE (Homo sapiens) (P06276 whole entry, looked up): as the sequence (P06276 whole entry) above
Chain of Cholinesterases; ACHE & BCHE (Homo sapiens) (P22303 whole entry, looked up): as the sequence (P22303 whole entry) above

Cholinesterase [14] = target: T2, Cholinesterase; test: Binding affinity to human BChE assessed as carbamoylation rate constant by Ellman's method
Cholinesterase [15] = target: T2, Cholinesterase; test: Binding affinity to human BChE assessed as inhibition constant
Cholinesterase [16] = target: T2, Cholinesterase; test: Binding affinity to human BChE assessed as gibbs free energy change
Cholinesterase [17] = target: T2, Cholinesterase; test: Binding affinity to human BChE assessed as half life incubated for 1 hr by Ellman's method
Cholinesterase [18] = target: T2, Cholinesterase; test: Binding affinity to human BChE assessed as pseudo-first order inhibition rate at 10 nM by Ellman's method
Cholinesterase [19] = target: T2, Cholinesterase; test: Binding affinity to human BChE assessed as pseudo-first order inhibition rate at 50 nM by Ellman's method
SH-SY5Y = test: Cytotoxicity against human SH-SY5Y cells assessed as inhibition of cell growth measured after 48 hrs by MTS assay; assay type: functional, cell-based
Cholinesterase [20] = target: T2, Cholinesterase; test: Binding affinity to human BChE assessed as pseudo-first order inhibition rate at 20 nM by Ellman's method
Cholinesterase [21] = target: T2, Cholinesterase; test: Binding affinity to human BChE assessed as pseudo-first order inhibition rate at 5 nM by Ellman's method
HepG2 = test: Cytotoxicity against human HepG2 cells assessed as inhibition of cell growth measured after 48 hrs by MTS assay; assay type: functional, cell-based; conditions: HepG2, 48 h
Cholinesterase [22] = target: T2, Cholinesterase; test: Time dependent inhibition of human BChE using butyrylthiocholine iodide as substrate preincubated for 30 mins followed by substrate addition and measured for 2 mins by spectrophotometry based Ellman's method; conditions: time 32.0 min
Acetylcholinesterase [23] = target: T1, Acetylcholinesterase; test: Inhibition of human AChE assessed as residual activity using acetylthiocholine iodide as substrate at 100 uM preincubated for 30 mins followed by substrate addition and measured for 2 mins by spectrophotometry based Ellman's method relative to control; conditions: time 32.0 min
Cholinesterase [24] = target: T2, Cholinesterase; test: Inhibition of human BChE using butyrylthiocholine iodide as substrate preincubated for 30 mins followed by substrate addition and measured for 2 mins by spectrophotometry based Ellman's method
Acetylcholinesterase [25] = target: T1, Acetylcholinesterase; test: Time dependent inhibition of human AChE using acetylthiocholine iodide as substrate preincubated for 30 mins followed by substrate addition and measured for 2 mins by spectrophotometry based Ellman's method; conditions: time 32.0 min

Row | SMILES | inhibition (Acetylcholinesterase [1]) | inhibition (Cholinesterase [2]) | IC50 (Cholinesterase [3]) | IC50 (Acetylcholinesterase [4]) | also measured
1 | CC(C)N(C)C(=O)Oc1cccc2c(CN(C)CCC3CCCCCC3)c[nH]c12 | Active | Active | 114 nM | 2830 nM | 
2 | CN(CCC1CCCCCC1)Cc1c[nH]c2c(OC(=O)N3CCCCC3)cccc12 | Active |  | 5.28 nM | 529 nM | 
3 | C#CCCCCCCCCCN(C)C(=O)Oc1cccc2c(CN(C)CCC3CCCCCC3)c[nH]c12 | Active | Active | 3.77 nM | 123 nM | Activity (Cholinesterase [5]): inactive; Activity (Cholinesterase [6]): Active; Activity (Acetylcholinesterase [7]): Active; Activity (Acetylcholinesterase [8]): inactive; Activity (Cholinesterase [9]): Active; Activity (Cholinesterase [10]): inactive; Activity (Cholinesterase [11]): inactive
4 | CN(CCC1CCCCCC1)Cc1c[nH]c2c(OC(=O)N(C)C(C)(C)C)cccc12 | inactive | inactive | 147 nM | 10000 nM | 
5 | CN(CCC1CCCCCC1)Cc1c[nH]c2cc(OC(=O)N(C)C)ccc12 | Active | Active | 45.6 nM | 6720 nM | 
6 | CN(CCC1CCCCCC1)Cc1c[nH]c2c(OC(=O)N(C)C)cccc12 | Active | Active | 1.76 nM | 559 nM | K (Cholinesterase [12]): 0.053 h⁻¹; Ratio IC50 [13]: 300; K (Cholinesterase [14]): 0.177 M⁻¹ s⁻¹; Ki (Cholinesterase [15]): 1.05 nM; deltaG (Cholinesterase [16]): 24 kcal/mol; T1/2 (Cholinesterase [17]): 13 h; Kobs (Cholinesterase [18]): 0.677 min⁻¹; Kobs (Cholinesterase [19]): 3.75 min⁻¹; IC50 (SH-SY5Y): 5800 nM; Kobs (Cholinesterase [20]): 1.85 min⁻¹; Kobs (Cholinesterase [21]): 0.447 min⁻¹; IC50 (HepG2): 7100 nM
7 | CC(C)N(C(=O)Oc1cccc2c(CN(C)CCC3CCCCCC3)c[nH]c12)C(C)C | inactive | inactive | 230 nM | 4630 nM | 
8 | O=C(Oc1cccc2cc[nH]c12)N1CCOCC1 |  |  |  |  | inhibition (Cholinesterase [22]): inactive; Activity (Acetylcholinesterase [23]): 19.3%; IC50 (Cholinesterase [24]): 2390 nM
9 | C#CCN(C)C(=O)Oc1cccc2c(CN(C)CCC3CCCCCC3)c[nH]c12 | Active |  | 7.75 nM | 340 nM | K (Cholinesterase [12]): 0.014 h⁻¹; deltaG (Cholinesterase [16]): 24.8 kcal/mol; T1/2 (Cholinesterase [17]): 49 h
10 | CN(C)C(=O)Oc1cccc2cc[nH]c12 |  |  |  |  | inhibition (Cholinesterase [22]): Active; Activity (Acetylcholinesterase [23]): 2.4%; inhibition (Acetylcholinesterase [25]): Active; IC50 (Cholinesterase [24]): 1660 nM
11 | CON(C)C(=O)Oc1cccc2c(CN(C)CCC3CCCCCC3)c[nH]c12 | inactive |  | 158 nM | 1100 nM | 
12 | C#CCN(CC#C)C(=O)Oc1cccc2c(CN(C)CCC3CCCCCC3)c[nH]c12 | Active |  | 32.8 nM | 464 nM | K (Cholinesterase [12]): 0.062 h⁻¹; deltaG (Cholinesterase [16]): 24 kcal/mol; T1/2 (Cholinesterase [17]): 11.2 h
13 | CCN(CC)C(=O)Oc1cccc2c(CN(C)CCC3CCCCCC3)c[nH]c12 | inactive | Active | 61 nM | 5590 nM | K (Cholinesterase [12]): 0.002 h⁻¹; deltaG (Cholinesterase [16]): 25.9 kcal/mol; T1/2 (Cholinesterase [17]): 318 h
14 | C#CCN(C)C(=O)Oc1ccc2c(CN(C)CCC3CCCCCC3)c[nH]c2c1 | inactive | inactive | 10.2 nM | 1460 nM | 
15 | CCN(C)C(=O)Oc1cccc2c(CN(C)CCC3CCCCCC3)c[nH]c12 | Active | Active | 10.4 nM | 6820 nM | 
16 | C#CCCCN(C)C(=O)Oc1cccc2c(CN(C)CCC3CCCCCC3)c[nH]c12 | Active | Active | 12.3 nM | 1080 nM | K (Cholinesterase [12]): 0.015 h⁻¹; deltaG (Cholinesterase [16]): 24.8 kcal/mol; T1/2 (Cholinesterase [17]): 46.5 h
17 | CN(CCC1CCCCCC1)Cc1c[nH]c2c(OC(=O)N(C)Cc3ccccc3)cccc12 | Active | Active | 11.6 nM | 531 nM | K (Cholinesterase [12]): 0.007 h⁻¹; deltaG (Cholinesterase [16]): 25.2 kcal/mol; T1/2 (Cholinesterase [17]): 92.2 h
18 | CC(C)N(C(=O)Oc1cccc2cc[nH]c12)C(C)C |  |  |  |  | inhibition (Cholinesterase [22]): inactive; Activity (Acetylcholinesterase [23]): 66.5%; inhibition (Acetylcholinesterase [25]): inactive; IC50 (Cholinesterase [24]): 12800 nM
19 | CN(CCC1CCCCCC1)Cc1c[nH]c2c(O)cccc12 |  |  | 373 nM | 11600 nM | 
20 | CN(CCC1CCCCCC1)Cc1c[nH]c2c(OC(=O)N3CCOCC3)cccc12 | Active |  | 11.4 nM | 3580 nM | 
21 | CN(CCC1CCCCCC1)Cc1c[nH]c2c(OC(=O)N(C)N(C)C)cccc12 | Active | Active | 13.2 nM | 5560 nM | 
22 | CCN(C)C(=O)Oc1cccc2cc[nH]c12 |  |  |  |  | inhibition (Cholinesterase [22]): Active; Activity (Acetylcholinesterase [23]): 56.2%; inhibition (Acetylcholinesterase [25]): inactive; IC50 (Cholinesterase [24]): 1390 nM
23 | C#CCN(CC)C(=O)Oc1cccc2c(CN(C)CCC3CCCCCC3)c[nH]c12 | Active | Active | 21.9 nM | 7530 nM | 
24 | C#CCN(C(=O)Oc1cccc2c(CN(C)CCC3CCCCCC3)c[nH]c12)C(C)C | inactive | inactive | 80.5 nM | 5350 nM | 
25 | CC(C)N(C(=O)Oc1ccc2c(CN(C)CCC3CCCCCC3)c[nH]c2c1)C(C)C | inactive | inactive | 86.2 nM | 337 nM | 
